Patent US20180353445A1, “METHODS AND COMPOSITIONS RELATING TO PROTEASOME INHIBITOR RESISTANCE” (Whitehead Institute for Biomedical Research, priority 2017, published 2018)
“Also recorded” adds a separate entry of the source.

Experiments:
Assay type in all cases: cell-based, human
[1] = test system: T47D cells with doxycycline inducible PSMD2 KD (Lo19S) versus control cells; assay: Lo19S T47D drug screen (PSMD2 KD versus control cells, CellTiter-Glo); settings: T47D, Lo19S state by dox-inducible PSMD2 shRNA; compound library screen; 72 h; CellTiter-Glo
T47D cells = assay: Drug library screen (Selleck anti-cancer, NPC, NIH bioactive), PSMD2 KD vs control T47D cells; settings: for growth inhibition of T47D cells with reduced level of PSMD2 vs control T47D cells: Selleck anti-cancer compound library screen
Experimental: Schematic representation of the drug screen setup. (FIG. 37A) 147D cells harboring a doxycycline-inducible PSMD2 shRNA were grown in the presence or absence of doxycycline for 48 hr. Cells were then collected, washed, and plated in the absence of doxycycline for 24 hr prior to exposure different compounds. Relative cell numbers were measured 3 days later.
The relative viability of the Lo19S versus control cells was calculated for replica experiments and the log2 of the ratio is plotted. […] The relative viability of the respiring cells (Hi-OXPHOS) (gal) versus the control cells (glu) was calculated for replica experiments and the log2 of the ratio is plotted.
After 48 hours the cells were collected, counted, and plated at 1000 cells/well in 384 well plates in duplicates for each cell line. Compounds from the Selleck Chemicals anti-cancer compound library (349 drugs in 4 concentrations; […]) were pinned the next day and viability was measured after 72 hours by the reduction of Resazurin (Ex=530 run, Em=590nin). (See FIG. 37A for schematic of screen.)

[2] = test system: IMR32 (reduced PSMD5) and Kelly neuroblastoma cells; assay: Viability of IMR32 versus Kelly neuroblastoma cells (CellTiter-Glo); settings: for sensitivity of IMR32 cells relative to Kelly cells (fold viability): 72 hours after addition, CellTiter-Glo
Experimental: To determine whether these compounds also differentially affect cells with reduced expression of PSDMS, IMR32 and Kelly cells were each cultured in the presence of ABT-263, disulfiram, or elesclomol across a range of concentrations. Cell viability was measured by CellTiter-Glo® Luminescent Cell Viability Assay 72 hours after addition of the compound to cells. The fold viability relative to culture in the absence of the compound was determined for each cell line. […] In the experiment shown in FIG. 24, the lowest lower concentration of ABT-263 and disulfiram tested was 1 uM.
ABT-263 targets several members of the BCL2 family, including BCL2 and BCL-XL.

SMILES | viability of PSMD2 KD versus control cells (log2 (shPSMD2/Control)) [1] | sensitivity of proteasome inhibitor resistant cancer cells vs sensitive counterpart cells (T47D cells) | growth inhibition of T47D cells with reduced level of PSMD2 vs control T47D cells (T47D cells) | sensitivity of IMR32 cells relative to Kelly cells (fold viability) [2] | preferential sensitivity of IMR32 versus Kelly cells, compared among BCL2 family inhibitors ([2]; ABT-263 versus more specific BCL2, BCL-XL and MCL-1 inhibitors) | effect of reintroduction (forced expression) of the PSMD5 subunit in IMR32 cells on sensitivity ([2]; IMR32 cells, PSMD5 epigenetically suppressed)
CC1(C)CCC(c2ccc(Cl)cc2)=C(CN2CCN(c3ccc(C(=O)NS(=O)(=O)c4ccc(N[C@H](CCN5CCOCC5)CSc5ccccc5)c(S(=O)(=O)C(F)(F)F)c4)cc3)CC2)C1 [ABT-263, navitoclax] | selectively reduce the viability of PSMD2 KD cells versus control cells; also recorded: selectively sensitized cells | highly sensitive | selectively inhibits growth | dramatically more sensitive; also recorded: significantly more sensitive | much greater for ABT-263 | did not significantly alter
CC(C)C[C@H](NC(=O)[C@H](Cc1ccccc1)NC(=O)c1cnccn1)B(O)O [bortezomib] | selectively reduce viability of control cells versus PSMD2 KD cells | – | – | increased resistance | – | –
CN(NC(=O)CC(=O)NN(C)C(=S)c1ccccc1)C(=S)c1ccccc1 [elesclomol] | selectively reduce the viability of PSMD2 KD cells versus control cells; also recorded: selectively sensitized cells; also recorded: highly effective in slowing the growth of cells in the Lo19S state | highly sensitive | selectively inhibit growth | dramatically more sensitive | – | –
